In this test the test system is mutant Huntington (HTT) protein. Kind of test: HTT Mutant HTRF iPSC assay (mHTT protein lowering). It is filed as cell-based. The settings on record: human iPSC derived from a HTT patient with a poly-Q49 mutation. For orientation: TR-FRET usually uses a lanthanide donor and a delayed reading to cut background.

From US20250353841A1 (BIOGEN MA INC., priority 2022, published 2025) come the findings set out here.

In general, IC50 refers to the midpoint of a concentration-inhibition curve. Higher therefore signals weaker potency in that assay. `Cc1cn2nc(-c3cc(F)c4nc(NC(=O)C5CCC(N(C)C)C5)cn4c3)cc(C)c2n1` (racemic) [Compound 128, rac-3-(dimethylamino)-N-(6-(2,8-dimethylimidazo[1,2-b]pyridazin-6-yl)-8-fluoroimidazo[1,2-a]pyridin-2-yl)cyclopentane-1-carboxamide]: the IC50 was under 100 nM. Regarding `Cc1cn2nc(-c3cc(F)c4nc(NC(=O)C5CCCC(N(C)C)C5)cn4c3)cc(C)c2n1` (racemic) [Compound 247, 3-(dimethylamino)-N-(6-(2,8-dimethylimidazo[1,2-b]pyridazin-6-yl)-8-fluoroimidazo[1,2-a]pyridin-2-yl)cyclohexane-1-carboxamide], the IC50 was 100 to 1000 nM. For `Cc1cn2nc(-c3cc(F)c4nc(NC(=O)C5CC56CCNC6)cn4c3)cc(C)c2n1` (racemic) [Compound 253, N-(6-(2,8-dimethylimidazo[1,2-b]pyridazin-6-yl)-8-fluoroimidazo[1,2-a]pyridin-2-yl)-5-azaspiro[2.4]heptane-1-carboxamide], the IC50 was 100 to 1000 nM.

Compound `Cc1cn2nc(-c3cc(F)c4nc(NC(=O)C5CN(C)C5(C)C)cn4c3)cc(C)c2n1` (racemic) [Compound 259, N-(6-(2,8-dimethylimidazo[1,2-b]pyridazin-6-yl)-8-fluoroimidazo[1,2-a]pyridin-2-yl)-1,2,2-trimethylazetidine-3-carboxamide] showed an IC50 of 100 to 1000 nM. The value for `Cc1cn2nc(-c3cc(F)c4nc(NC(=O)C5CNC5(C)C)cn4c3)cc(C)c2n1` (racemic) [Compound 260, N-(6-(2,8-dimethylimidazo[1,2-b]pyridazin-6-yl)-8-fluoroimidazo[1,2-a]pyridin-2-yl)-2,2-dimethylazetidine-3-carboxamide] was 100 to 1000 nM; that for `Cc1cn2nc(-c3cc(F)c4nc(NC(=O)C56CCCN(CC5)C6)cn4c3)cc(C)c2n1` (racemic) [Compound 279] was under 100 nM. Consider `Cc1cn2nc(-c3cc(F)c4nc(NC(=O)C5CC6CC5CN6)cn4c3)cc(C)c2n1` (racemic) [Compound 280], for which the IC50 is under 100 nM. Take `Cc1cn2nc(-c3cc(F)c4nc(NC(=O)CC5CCNC5)cn4c3)cc(C)c2n1` (racemic) [Compound 283, N-(6-(2,8-dimethylimidazo[1,2-b]pyridazin-6-yl)-8-fluoroimidazo[1,2-a]pyridin-2-yl)-2-(pyrrolidin-3-yl)acetamide]: the IC50 was 100 to 1000 nM. For the compound `Cc1cn2nc(-c3cc(F)c4nc(NC(=O)CC5CCCCN5C)nn4c3)cc(C)c2n1` (racemic) [Compound 328, N-(6-(2,8-dimethylimidazo[1,2-b]pyridazin-6-yl)-8-fluoro-[1,2,4]triazolo[1,5-a]pyridin-2-yl)-2-(1-methylpiperidin-2-yl)acetamide], the IC50 lay in the range of 100 to 1000 nM. With `Cc1cn2nc(-c3cc(F)c4nc(NC(=O)CC5CCCN5C)nn4c3)cc(C)c2n1` (racemic) [Compound 329, N-(6-(2,8-dimethylimidazo[1,2-b]pyridazin-6-yl)-8-fluoro-[1,2,4]triazolo[1,5-a]pyridin-2-yl)-2-(1-methylpyrrolidin-2-yl)acetamide] the figure was 100 to 1000 nM. Compound `Cc1cn2nc(-c3cc(F)c4nc(NC(=O)C5CCNC6(CC6)C5)nn4c3)cc(C)c2n1` (racemic) [Compound 330, N-(6-(2,8-dimethylimidazo[1,2-b]pyridazin-6-yl)-8-fluoro-[1,2,4]triazolo[1,5-a]pyridin-2-yl)-4-azaspiro[2.5]octane-7-carboxamide] yielded a half-maximal inhibitory concentration (IC50) of 100 to 1000 nM. The compound `Cc1cn2nc(-c3cc(F)c4nn(C5CCNC(C)(C)C5)nc4c3)cc(C)c2n1` (racemic) [Compound 394, 6-(2,8-dimethylimidazo[1,2-b]pyridazin-6-yl)-2-(2,2-dimethylpiperidin-4-yl)-4-fluoro-2H-benzo[d][1,2,3]triazole] showed an IC50 of 100 to 1000 nM. Consider `Cc1cn2nc(-c3cc(F)c4nn(C5CC6CNCC65)nc4c3)cc(C)c2n1` (racemic) [Compound 397, 2-(3-azabicyclo[3.2.0]heptan-6-yl)-6-(2,8-dimethylimidazo[1,2-b]pyridazin-6-yl)-4-fluoro-2H-benzo[d][1,2,3]triazole], for which the IC50 fell in the range of 100 to 1000 nM.

With `Cc1cn2nc(-c3cc(F)c4nn(C5C[C@@H](C)N[C@H](C)C5)nc4c3)cc(C)c2n1` (relative stereo) [Compound 393, 6-(2,8-dimethylimidazo[1,2-b]pyridazin-6-yl)-2-((2R,6R)-2,6-dimethylpiperidin-4-yl)-4-fluoro-2H-benzo[d][1,2,3]triazole], the IC50 was 100 to 1000 nM. As to `CCN1CC[C@@H](N(C)c2nc3c(F)cc(-c4cc(C)c5nc(C)cn5n4)cc3o2)C[C@@H]1C` (relative stereo) [Compound 488, rel-6-(2,8-dimethylimidazo[1,2-b]pyridazin-6-yl)-N-((2R,4S)-1-ethyl-2-methylpiperidin-4-yl)-4-fluoro-N-methylbenzo[d]oxazol-2-amine], the IC50 was in the range of 100 to 1000 nM.

The compound `Cn1cc2cc(-c3cc(F)c4nc([C@H]5CNCCO5)cn4c3)cc(F)c2n1` (single isomer, unassigned) [Compound 70] displayed an IC50 of 1000 to 9000 nM. With `Cn1cc2cc(-c3cc(F)c4nc([C@@H]5CNCCO5)cn4c3)cc(F)c2n1` (single isomer, unassigned) [Compound 71] the figure was 100 to 1000 nM; with `Cc1cn2nc(-c3cc(F)c4nc([C@H]5CCC6(CCNCC6)C5)cn4c3)cc(C)c2n1` (single isomer, unassigned) [Compound 114], under 100 nM. For `Cc1cn2nc(-c3cc(F)c4nc([C@]56CC[C@@H](C5)NC6)cn4c3)cc(C)c2n1` (single isomer, unassigned) [Compound 115], the IC50 lay in the range of 100 to 1000 nM. Compound `Cc1cn2nc(-c3cc(F)c4nc([C@@]56CC[C@H](C5)NC6)cn4c3)cc(C)c2n1` (single isomer, unassigned) [Compound 116] had an IC50 of 1000 to 9000 nM.

In the case of `Cc1cn2nc(-c3cc(F)c4nc([C@H]5CCCNC5)cn4c3)cc(C)c2n1` (single isomer, unassigned) [Compound 117], the IC50 was 100 to 1000 nM.

`Cc1cn2nc(-c3cc(F)c4nc([C@@H]5CCCNC5)cn4c3)cc(C)c2n1` (single isomer, unassigned) [Compound 118] registered an IC50 of under 100 nM.

Compound `Cc1cn2nc(-c3cc(F)c4nc([C@@H]5CCC6(CCNCC6)C5)cn4c3)cc(C)c2n1` (single isomer, unassigned) [Compound 119] came in with an IC50 of under 100 nM. For `Cc1cn2nc(-c3cc(F)c4nc([C@H]5C[C@@]6(CN[C@H](C)C6)C5)cn4c3)cc(C)c2n1` (single isomer, unassigned) [Compound 176, 6-(8-fluoro-2-((2S*,4r,7S*)-7-methyl-6-azaspiro[3.4]octan-2-yl)imidazo[1,2-a]pyridin-6-yl)-2,8-dimethylimidazo[1,2-b]pyridazine], the IC50 is under 100 nM. On to `Cc1cn2nc(-c3cc(F)c4nc([C@H]5C[C@]6(CN[C@@H](C)C6)C5)cn4c3)cc(C)c2n1` (single isomer, unassigned) [Compound 177, 6-(8-fluoro-2-((2S*,4r,7S*)-7-methyl-6-azaspiro[3.4]octan-2-yl)imidazo[1,2-a]pyridin-6-yl)-2,8-dimethylimidazo[1,2-b]pyridazine], for which the IC50 is under 100 nM.

Turning to `Cc1cn2nc(-c3cc(F)c4nc([C@H]5C[C@]6(CN[C@H](C)C6)C5)cn4c3)cc(C)c2n1` (single isomer, unassigned) [Compound 178, 6-(8-fluoro-2-((2R*,4r,7R*)-7-methyl-6-azaspiro[3.4]octan-2-yl)imidazo[1,2-a]pyridin-6-yl)-2,8-dimethylimidazo[1,2-b]pyridazine], the IC50 was under 100 nM. Take `Cc1cn2nc(-c3cc(F)c4nc([C@@H]5CCNC6(CC6)C5)cn4c3)cc(C)c2n1` (single isomer, unassigned) [Compound 179]: the half-inhibitory concentration (IC50) is 100 to 1000 nM. The value for `Cc1cn2nc(-c3cc(F)c4nc([C@H]5CCNC6(CC6)C5)cn4c3)cc(C)c2n1` (single isomer, unassigned) [Compound 180] was under 100 nM; that for `Cc1cn2nc(-c3cc(F)c4nc(C5CCN(C)C5)cn4c3)cc(C)c2n1` (single isomer, unassigned) [Compound 186] was 100 to 1000 nM. In turn, `Cc1cn2nc(-c3cc(F)c4nc([C@@H]5CCNC5)cn4c3)cc(C)c2n1` (single isomer, unassigned) [Compound 189] displayed an IC50 of under 100 nM. `Cc1cn2nc(-c3cc(F)c4nc([C@H]5CCNC5)cn4c3)cc(C)c2n1` (single isomer, unassigned) [Compound 190] came in with an IC50 of 100 to 1000 nM. The compound `Cc1cn2nc(-c3cc(F)c4nc(C5CCN(C)C6(CC6)C5)cn4c3)cc(C)c2n1` (single isomer, unassigned) [Compound 209] had a half-maximal inhibitory concentration (IC50) of under 100 nM.

Take `Cc1cn2nc(-c3cc(F)c4nc(C5CCNC(C)(C)C5)cn4c3)cc(C)c2n1` (single isomer, unassigned) [Compound 234]: the IC50 is under 100 nM. Regarding `Cc1cn2nc(-c3cc(F)c4nc(C5CCNC(C)(C)C5)cn4c3)cc(C)c2n1` (single isomer, unassigned) [Compound 235], the IC50 is under 100 nM. `Cc1cn2nc(-c3cc(F)c4nc(NC(=O)C5CCCN(C)C5)cn4c3)cc(C)c2n1` (single isomer, unassigned) [Compound 277] gave an IC50 of under 100 nM. The compound `Cc1cn2nc(-c3cc(F)c4nc(NC(=O)C5CCCN(C)C5)cn4c3)cc(C)c2n1` (single isomer, unassigned) [Compound 278] gave an IC50 of under 100 nM. `Cc1cn2nc(-c3cc(F)c4nc(NC(=O)C5CCCNC5)nn4c3)cc(C)c2n1` (single isomer, unassigned) [Compound 315] had an IC50 of 100 to 1000 nM. The value for `Cc1cn2nc(-c3cc(F)c4nc(NC(=O)C5CCCNC5)nn4c3)cc(C)c2n1` (single isomer, unassigned) [Compound 316] was 100 to 1000 nM. `Cc1cn2nc(-c3cc(F)c4nc(NC(=O)C5CCCN(C)C5)nn4c3)cc(C)c2n1` (single isomer, unassigned) [Compound 325] displayed an IC50 of 100 to 1000 nM.

In the case of `Cc1cn2nc(-c3cc(F)c4nc(NC(=O)C5CCCN(C)C5)nn4c3)cc(C)c2n1` (single isomer, unassigned) [Compound 326], the IC50 lay within 100 to 1000 nM. The value for `Cc1cn2nc(-c3cc(F)c4nc(C(=O)NC5CCNC6(CC6)C5)cn4c3)cc(C)c2n1` (single isomer, unassigned) [Compound 348] was 100 to 1000 nM.
